For data set [1], the system named is human soft tissue sarcoma (HT-1080) xenografts. The data set is described as follows: Inhibition of HT1080 xenograft growth (soft tissue sarcoma model, HMT injected near tumor). It is filed as in vivo, mice. Here is the method:
HMT was injected near the palpable soft tissue sarcoma tumors after 18 days when their size reached an average of 195 mm3 (range, 90-500 mm3). The mice were separated into two cohorts: (i) 3 intravenous doses of 14 μmoles/kg of doxorubicin every 4 days (maximum tolerable dose), (27, 49) or (ii) daily doses of 14 μmoles/kg of doxorubicin for 10 days (FIG. 18B). Tumor volumes were measured twice a week for 13 weeks (FIG. 18A). No further therapies were given to the subjects 28 days post tumoral implantation (dpi).

The conditions of data set [2]: 3 days after the last treatment, after injection of HMT.
Method: Samples were collected 3 days after the last treatment. Data are means±SD (n=2).
Reticulocyte measurements. Two mice per condition were anesthetized with isoflurane anesthesia 3 days after the last treatment during the nadir of reticulocyte decrease. (27) Blood was collected by cardiac puncture in a syringe containing lithium heparin to prevent coagulation. RBC and reticulocyte concentrations were determined the same day using a DEXX ProCyte Dx Hematology Analyzer (IDEXX Laboratories, Inc.).
For data set [3] the following is noted: xenograft mice, HMT injected.
The test system of data set [4] is HT1080 cells. In words: MTT cytotoxicity assay. As to conditions: read-out: 50% growth inhibitory concentration (IC50), 48 h treatment followed by additional 48 h in DMEM. In general terms: Formazan colour is commonly taken as a measure of viable cells.
Method: Cells were treated with the drug or the pro-drug for 48 h, followed by additional 48 h in DMEM, prior to measuring their viability.
HT1080 cells were purchased from ATCC (cat. #CCL-121), and propagated in Dulbecco's modified Eagle's medium (DMEM; Meditech, Inc. Corning, Manassas, VA) containing 5% fetal bovine serum (FBS; HyClone, Logan Utah), supplemented with 100 U/ml penicillin, and 100 μg/ml streptomycin (Life Tech Corp., Grand Island, NY) at 37° C. in a 5% CO2 incubator.
Day one: using 96-well format, plated˜100 cells/well in 100 μL DMEM and incubated for 24 h. […] Day four: the medium was replaced with 100 μL of fresh DMEM and the cells were incubated for 48 h. Day six: DMEM was removed and the cells were incubated with 100 μL of MTT solution (0.6 mg/mL in DMEM) per well for 4 h at 37° C. The MTT solution was then replaced with 100 μL of DMSO containing 4% aqueous ammonia per well to dissolve the purple formazan crystals. After 30 min, the absorbance of each well at 550 nm was recorded using BioTek Synergy HT multi detection microplate reader. Results were averaged from three independent arrays of triplicate experiments.

`COc1cccc2c1C(=O)c1c(O)c3c(c(O)c1C2=O)C[C@@](O)(C(=O)CO)C[C@@H]3O[C@H]1C[C@H](N)[C@H](O)[C@H](C)O1` [doxorubicin]: the median tumor size result was “undetectable” in data set [1] (2 weeks after the last treatment dose (40 dpi), HMT near tumor) and “greater than 2000 mm^3” in data set [1] (30 days after the last treatment dose (60 dpi), HMT near tumor). In addition, the “mice with a mild response” value in data set [1] (40 dpi, HMT near tumor) is 1/5. Moreover, the “mice that reached the study endpoint of 2000 mm3” value in data set [1] (by 88 dpi) is recorded as 5/5. Moreover, in data set [2], the reticulocyte counts result was “dramatic decrease in reticulocytes”. Also, the body weight lost entry in data set [3] is recorded as “about 20%”. In addition, in data set [4], the IC50 came to 18 nM.
